Experimental findings from ChEMBL document CHEMBL3124747, “Formosusin A, a novel specific inhibitor of mammalian DNA polymerase β from the fungus Paecilomyces formosus” (Bioorg Med Chem, 2014) are described below.

The term Ki denotes a dissociation constant, usually derived from enzyme kinetics or from competition with a known ligand. As a reminder, the IC50 is the concentration that inhibits the measured activity by half.

SMILES strings stand for the structures.

In assay [1] the target is T1, DNA polymerase beta (Rattus norvegicus, UniProt P06766). As to the kind of experiment: Noncompetitive inhibition of recombinant rat DNA polymerase beta using dTTP as substrate by Lineweaver-Burk plot analysis.
The target of assay [2] is T1, DNA polymerase beta. Nature of the assay: Competitive inhibition of recombinant rat DNA polymerase beta using poly(dA)/oligo(dT)18 as substrate by Lineweaver-Burk plot analysis.
The nature of assay [3]: Inhibition of cauliflower DNA polymerase alpha assessed as inhibition of incorporation of dTTP into poly(dA)/oligo(dT)18 after 60 mins. Also noted: species or system Brassica oleracea var. botrytis.
Another assay concerns the target T2, DNA polymerase eta (Homo sapiens, UniProt Q9Y253).
T2 sequence (Q9Y253 whole entry): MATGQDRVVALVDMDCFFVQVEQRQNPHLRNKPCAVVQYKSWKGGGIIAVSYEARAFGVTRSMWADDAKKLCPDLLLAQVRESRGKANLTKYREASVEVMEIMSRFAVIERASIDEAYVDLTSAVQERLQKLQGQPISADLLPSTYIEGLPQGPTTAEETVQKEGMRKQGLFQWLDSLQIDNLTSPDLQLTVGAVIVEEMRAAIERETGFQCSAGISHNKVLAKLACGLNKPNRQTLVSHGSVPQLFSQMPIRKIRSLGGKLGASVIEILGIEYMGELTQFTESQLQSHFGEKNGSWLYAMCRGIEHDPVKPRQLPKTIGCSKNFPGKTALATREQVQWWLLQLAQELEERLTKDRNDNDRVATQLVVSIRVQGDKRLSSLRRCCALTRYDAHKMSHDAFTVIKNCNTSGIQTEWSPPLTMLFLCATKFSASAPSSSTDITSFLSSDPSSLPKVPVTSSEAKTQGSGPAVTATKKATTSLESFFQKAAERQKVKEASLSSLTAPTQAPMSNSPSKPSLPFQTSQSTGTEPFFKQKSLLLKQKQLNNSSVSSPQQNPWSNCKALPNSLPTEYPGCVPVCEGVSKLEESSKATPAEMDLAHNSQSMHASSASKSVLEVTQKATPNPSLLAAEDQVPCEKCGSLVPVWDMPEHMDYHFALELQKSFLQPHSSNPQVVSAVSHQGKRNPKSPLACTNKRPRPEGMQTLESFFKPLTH
Nature of the assay: Inhibition of C-terminal His-6-tagged human DNA polymerase eta expressed in Escherichia coli assessed as inhibition of incorporation of dTTP into poly(dA)/oligo(dT)18 after 60 mins.

Assay [4] has as its target DNA polymerase beta (Rattus norvegicus) (UniProt P06766). As to the kind of experiment: Inhibition of recombinant rat DNA polymerase beta expressed in Escherichia coli JMpbeta5 assessed as inhibition of incorporation of dTTP into poly(dA)/oligo(dT)18 after 60 mins.
Assay [5] is described as follows: Inhibition of DNA polymerase epsilon isolated from human MOLT4 cells assessed as inhibition of incorporation of dTTP into poly(dA)/oligo(dT)18 after 60 mins. The note with it: molt-4. Type of assay: cell-free.

On to `CCCC[C@@H](O)/C=C(C)/C=C/C=C\C(=O)N1CCCC1=O`, for which the inhibitory constant (Ki) on DNA polymerase beta [1] was 11.6 µM; at DNA polymerase beta [2], 5.5 µM. In addition, the IC50 (in assay [3]; at DNA polymerase eta; in assay [5]) was more than 200 µM throughout. Further, the inhibition result in assay [4] was “Dose-dependent effect”.

Turning to `CCCCC(=O)/C=C(C)/C=C/CCC(=O)N1CCCC1=O`, the IC50 (in assay [3]; on DNA polymerase eta; in assay [5]) was more than 200 µM each time.

As for `CCCC[C@@H](O)/C=C(C)/C=C/C=C/C(=O)N1CCCC1=O` [PECILOCIN], the half-inhibitory concentration (IC50) (in assay [3]; on DNA polymerase eta; in assay [5]) was more than 200 µM each time.

For `CC(/C=C/CCC(=O)N1CCCC1=O)=C\C1CCCCO1` (stereo not given), the IC50 (in assay [3]; at DNA polymerase eta; in assay [5]) was more than 200 µM in each case.
